According to patent US8716558B2, “Method of altering glycosylation of proteins in response to nojirimycin glucuronide in a plant cell expressing glucuronidase” (Marker Gene Technologies, Inc., priority 1999, dated 2014):

Columns and labels:
[1] = tested on: LFY::luc transformed Arabidopsis thaliana ecotype Columbia; assay: Tissue selective ablation of meristem floral initiator cells; assay type: in vivo; settings: 5 mM spray in 0.01% triton X-100, 2 times per day, 7-20 days
Source text: To test for induction of sterility and prevention of cross-pollination of recombinant plants, Arabiposis thaliana ecotype Columbia are transformed with a plasmid construct containing an LEAFY promoter (LFY) driven firefly luciferase (luc) gene by standard leaf disk techniques (Horsch, et al., 1988). The 2.3 kb BamHI fragment spanning the LFY promoter (Blazquez, et al., 1997) is inserted in front of the luc gene in plasmid pGL3 (available from Promega Corp., Madison, Wis.) using the BglII site. Transgenic plants are generated using the vacuum-filtration method of Berthold, et al. (Berthold, et al., 1993). Regenerated kanamycin-resistant T1 plants carrying LFY::luc are grown up in a greenhouse to allow seed to set. T2 seed of strongly expressing T1 lines are grown in sterile culture on MS medium containing kanamycin at 20° C. for 6 to 10 days in 16 hours light: 8 hours dark cycles and afterward in 12 hour light: 12 hour dark cycles. Plants are treated by spray application to the upper leaves and apical shoot sections, with 5 mM D-luciferin-bromoxynil in 0.01% aqueous triton X-100, 2 times per day, beginning on day 4, for a period of 7-20 days.

NIH/3T3 cells [2] = assay: Doubling time in DME:F12 with a defined sugar, MTT assay; assay type: cell-based, Mouse; settings: NIH/3T3, named sugar as only sugar
Procedure: (§1) Mouse fibroblast cell line NIH/3T3 and its β-galactosidase expressing derivative CREBAG 2 available from ATCC, Manassas, Va., were grown in media containing either only glucose or only lactose to show the ability to select for β-galactosidase expressing cells by providing only lactose as a carbon source, which must be cleaved into glucose and galactose by β-galactosidase before it can be utilized by the cell.
(§2) 1:1 Dulbecco's Modified Eagles medium (DME): Ham F12 medium was prepared according to standard formula (Freshney) and with the omission of D-glucose, which was replaced by an equimolar quantity of D-lactose. Cell lines were plated in 2, 12 well plates for each cell type, at a density of 5×10^3 cells per well, in DME containing 10% Calf Serum (CS), and incubated for 4 hours at 37° C. to allow settling and attachment to the plate. Media was then removed and cells were washed once with phosphate buffered saline solution (PBS). […]
(§3) For the MTT assay, cells are incubated with the MTT reagent, which is turned over by live cells to a purple MTT formazan product. […] Absorbence of each sample is measured against a DMSO blank at 570 nm.

[3] = tested on: CRE BAG 2 cells (β-galactosidase expressing); assay: as above; assay type: cell-based, Mouse; settings: CRE BAG 2, named sugar as only sugar
Procedure: as §1, §2, §3

X. campestris XN1 = assay: Differential growth of non-transformed bacteria under PPT block; assay type: cell-based, Xanthomonas campestris; settings: M9+0.2% glucose+PPT (20 μg/mL)+M0182 (63 μg/mL)
[4] = tested on: X. campestris CL355 (ampicillin resistant, plasmid pGC9114); assay: Differential growth of amp-containing bacteria under PPT block; assay type: cell-based, Xanthomonas campestris; settings: M9+0.2% glucose+PPT (20 μg/mL)+M0182 (63 μg/mL)
CRE BAG 2 cells = assay: Selective ablation, ONPG turnover by remaining cells; assay type: cell-based; settings: 15 μg/ml, 14 hours, three treatments, ONPG turnover 4 hours
Procedure: (§4) NIH/3T3, CRE BAG 2, or a 50/50 mixture of both cell lines (in co-culture) (Total cell density=6×10^4 cells each) were plated in […]. 12 tissue culture treated glass cover slips were added to each plate, and the cells were allowed to grow in an humidified CO2-incubator (37° C.) for 24 hours. Half the cover slips from each plate were then transferred to separate plates. Cells were treated with 15 μg/ml cycloheximide ? -D-galactopyranoside described in Example 1 (M0147) in media for 14 hours then given fresh media (DME with 10% FCS) for 10 hours. This treatment was repeated twice more, the cover slips were removed from both the M0147 treated and untreated 60 mm plates and placed in 12 well plates. To give an indication of the number of β-galactosidase expressing CREBAG2 cells remaining on the cover slips, the cover slips were incubated with the β-galactosidase substrate ONPG, whose turnover can be measured by the change in absorbance at 420 nm. The cells were rinsed with PBS, then 1 ml of 3.5 mM ONPG in HBSS was added to each well. After 4 hours incubation at 37° C., the solution was removed from each well and the absorbance was measured at 420 nm.

[5] = tested on: 50/50 co-culture of NIH/3T3 and CRE BAG 2 cells; assay: as above; assay type: cell-based; settings: 15 μg/ml
Procedure: as §4

NIH/3T3 cells [6] = assay: as above; assay type: cell-based; settings: 15 μg/ml, 14 hours, three treatments, ONPG turnover 4 hours
Procedure: as §4

Question: `N#Cc1cc(Br)c(OCC2SC(c3nc4ccc(O)cc4s3)=N[C@H]2C(=O)O)c(Br)c1` (stereo partly drawn) [D-luciferin-bromoxynil, D-2-(6′-Hydroxybenzothiazol-2′-yl)-D2-5-(2,6-dibromo-4-cyanophenoxy)methylthiazoline-4-carboxylic acid] was tested. Which “floral initiation in apical shoot meristem” value [1] did it give?
Answer: no transition to floral initiation

Question: Which results are given for `OC[C@H]1O[C@@H](O[C@H]2[C@H](O)[C@@H](O)C(O)O[C@@H]2CO)[C@H](O)[C@@H](O)[C@H]1O` (stereo partly drawn) [lactose, D-lactose]?
Answer: Doubling Times (Days) of Cells Grown in DME:F12 with 10% dCS (NIH/3T3 cells [2]): 0.87 days; Doubling Times (Days) of Cells Grown in DME:F12 with 10% dCS [3]: 1.13 days

Question: With “Phenylacetyl-cephalosporanic acid-glutamate [Example M0182]” as the compound, how does the “final growth, Abs. (600 nm)” value (X. campestris XN1) read?
Answer: 0.101

Question: What about the “final growth, Abs. (600 nm)” value [4] of the same compound?
Answer: 0.471

Question: `CC1CC(C)C(=O)[C@H]([C@H](CC2CC(=O)NC(=O)C2)OC2OC(CO)C(O)C(O)C2O)C1` (stereo partly drawn) [Example M0147, 3-[2-(3,5-dimethyl-2-oxocyclohexyl)-2-O-(β-D-galactopyranosyl)ethyl]glutarimide] was tested. Which “Growth (abs @ 420 nm)” value (CRE BAG 2 cells) did it give?
Answer: .450

Question: And the “β-galactosidase activity (number of CREBAG2 cells) in co-culture” value ([5]; to nearly that of NIH/3T3 cells alone)?
Answer: decrease of β-galactosidase activity

Question: And the “Growth (abs @ 420 nm)” value ([5]; Coculture, 14 hours, three treatments, ONPG turnover 4 hours)?
Answer: .133

Question: What about the “Growth (abs @ 420 nm)” value (NIH/3T3 cells [6]) of the same compound?
Answer: .100
